Experimental data as given in patent EP1151753B1, “PREVENTIVE AND THERAPEUTIC AGENTS FOR ARTERIOSCLEROSIS” (CCI CORPORATION, priority 1999, dated 2000).

How the values were obtained:
[1] = Biochemical test of blood and measurement of body weight, WHHL rabbit model; format: in vivo, WHHL type rabbits; details: WHHL rabbits
Description: Now, the pharmacogenic effect of the agent of this invention for preventing and curing arteriosclerosis will be described specifically below with reference to a pharmacological test using high cholesterol-loaded rabbits and the WHHL (Watanabe heritable hyperlipidemic) rabbits forming a model of the familial high-cholesterol blood disease. The data were wholly reported by the average ± standard error (SE) and the significant differences among separate groups were determined by the Student's t-test. The risk factor, p < 0.05, was rated as forming a significance of difference.
1. Animal used and feeding conditions In the test, female and male WHHL type rabbits (SPF: Kitayama Labels K.K.) which were eight weeks old at the time of arrival at the laboratory were subjected to quarantine and domestication and visually inspected as to the general condition and, after the absence of abnormality was confirmed, put to use. The body weights at the time of starting administration (at the age of nine weeks) were in the range of 1.5 - 1.9 kg in the case of male rabbits and in the range of 1.4 - 1.8 kg in the case of female rabbits. Throughout the entire duration of the test, the animals were raised as accommodated one each in hanger cages of aluminum installed on a stainless steel rack inside a clean feeding chamber set at a temperature in the range of 20 - 26°, a relative humidity in the range of 40 - 70%, a number of ventilations in the range of 10 - 20 turns/hour, and an illumination time within the range of 12 hours (7.00 - 19:00). They were fed on a commercially available radioactively sterilized solid feed (made by Oriental Kobo K.K. and sold under the product code of "RC4") and they were left freely drinking the tap water delivered by an automatic water supplying device. 2. Setting dosage and method of administration The dosage of TMG was set at 800 mg/head/day. The TMG was solved in reagent grade ethanol. The produced solution was sprayed on the feed and the wet feed was left drying in the air. A mixed feed was prepared so as to contain 800 mg of TMG per 100 g of the feed. The mixed feed was given to the rabbits every morning at a rate of 100 g/day per head for 27 weeks for the sake of attaining oral consumption of the TMG. The feed for the control group was obtained by spraying ethanol alone on a feed and air-drying the wet feed. It was given to the rabbits of the control group at a rate of 100 g/day per head for 27 weeks. 3. Formation of groups and number of animals A control group and a TMG-administration group were formed; each group consistingof threemales and three females, namely a total of six rabbits. These animals were apportioned to the two groups randomly and nevertheless elaborately so as to avoid confusion of the children of one brood in either group to the fullest possible extent and equalize as much as permissible the average body weights and the average total cholesterol numbers in blood serum of the two groups with the body weights and the total cholesterol numbers found at the time of completion of the domestication. 4. […] The blood was centrifuged to separate blood serum and the blood serum was analyzed for the items shown in Table 5 by the use of an automatic analyzer (made by Hitachi. Ltd. and sold under the product code of "736-20"). The body weight of each rabbit was measured at the rate of once a week throughout the entire duration of the administration.

[2] = system: WHHL rabbit model; test: Evaluation of morbid alteration of aorta (Sudan dyeing), WHHL rabbit model; format: in vivo, WHHL type rabbits; details: WHHL rabbits
Description: 1. Animal used and feeding conditions In the test, female and male WHHL type rabbits (SPF: Kitayama Labels K.K.) which were eight weeks old at the time of arrival at the laboratory were subjected to quarantine and domestication and visually inspected as to the general condition and, after the absence of abnormality was confirmed, put to use. The body weights at the time of starting administration (at the age of nine weeks) were in the range of 1.5 - 1.9 kg in the case of male rabbits and in the range of 1.4 - 1.8 kg in the case of female rabbits. Throughout the entire duration of the test, the animals were raised as accommodated one each in hanger cages of aluminum installed on a stainless steel rack inside a clean feeding chamber set at a temperature in the range of 20 - 26°, a relative humidity in the range of 40 - 70%, a number of ventilations in the range of 10 - 20 turns/hour, and an illumination time within the range of 12 hours (7.00 - 19:00). […] The blood was centrifuged to separate blood serum and the blood serum was analyzed for the items shown in Table 5 by the use of an automatic analyzer (made by Hitachi. Ltd. and sold under the product code of "736-20"). The body weight of each rabbit was measured at the rate of once a week throughout the entire duration of the administration. […]

[3] = TMG 800 mg/head/day for 27 weeks
[4] = blood serum, TMG 800 mg/head/day in feed, average ± SE

With `Cc1c(C)c2c(c(C)c1O)CCC(C)(C[C@H]1O[C@H](CO)[C@@H](O)[C@H](O)[C@H]1O)O2` (stereo partly drawn) [TMG, 2-(α-D-glucopyranosyl)methyl-2,5,7,8-tetramethyl chroman-6-ol] the “activity of lowering the blood serum lipids (T-CHO, TG, PL, LDL-CHO)” value [1, 3] was “no activity”, the “biochemical test of blood” value [1, 3] was “no sign of abnormality” and the Body weight ([1]; TMG 800 mg/head/day in feed, average ± SE) was 2.89 ± 0.11 kg. For the same compound, the ALB [1, 4] was 2.4 ± 0.1 g/dL, the ALP [1, 4] was 87± 5 mU/ml and the ChE [1, 4] was 0.19 ± 0.05 U/ml. It also gave a GOT [1, 4] of 26.0 ± 11.1 mU/ml, a GPT [1, 4] of 59.7 ± 12.3 mU/ml and an LDH [1, 4] of 97 ± 4 mU/ml. The PL [1, 4] was 459 ± 52 mg/dL, the T-CHO [1, 4] was 934 ± 49 mg/dL and the TG [1, 4] was 169 ± 23 mg/dL. The “occurrence of the atherosclerosis” value [2, 3] was “significantly repressing” and the “Surface involvement (%)” value ([2]; area occupied by deposited lipid in whole area of aorta, TMG 800 mg/head/day in feed, 27th week, control 64.6±3.9, p < 0.05) was 52.4 ± 4.7 %.
